Data reported in patent US12496319B2 (INDUSTRY FOUNDATION OF CHONNAM NATIONAL UNIVERSITY, priority 2020, dated 2025).

Target: T1, NOD2 (Homo sapiens, UniProt Q9HC29)
T1 construct: host or cells: HEK293 / HEK293T cells carrying a NOD2-responsive luciferase reporter
Test: NOD2 activity by luciferase assay in HEK293 cells
Type: cell-based
Conditions: 10 ng/ml MDP control, 24 hours, untreated = 1.00
Procedure: Existing literature has reported that the protective effect of lactic acid bacteria on inflammatory bowel disease results from the anti-inflammatory effect of NOD2, which is an innate immune receptor protein. […] Specifically, HEK293 cells were treated with 1 MOI of several types of lactic acid bacteria, which had been transduced to generate luciferase by transcription of the luciferase gene through the stimulation of NOD2. For a control with respect to cell activity, HEK293 cells were treated with 10 ng/ml muramyl dipeptide (MDP) capable of stimulating NOD2 and then cultured in a cell incubator for 24 hours. Thereafter, the NOD2 activity was determined by luciferase assay on the luciferase generated from cell rupture. MDP, which is a component of the peptidoglycan constituting the cell wall of bacteria, is a ligand that directly acts on NOD2, and this was used as a control.

T1 sequence (Q9HC29 whole entry): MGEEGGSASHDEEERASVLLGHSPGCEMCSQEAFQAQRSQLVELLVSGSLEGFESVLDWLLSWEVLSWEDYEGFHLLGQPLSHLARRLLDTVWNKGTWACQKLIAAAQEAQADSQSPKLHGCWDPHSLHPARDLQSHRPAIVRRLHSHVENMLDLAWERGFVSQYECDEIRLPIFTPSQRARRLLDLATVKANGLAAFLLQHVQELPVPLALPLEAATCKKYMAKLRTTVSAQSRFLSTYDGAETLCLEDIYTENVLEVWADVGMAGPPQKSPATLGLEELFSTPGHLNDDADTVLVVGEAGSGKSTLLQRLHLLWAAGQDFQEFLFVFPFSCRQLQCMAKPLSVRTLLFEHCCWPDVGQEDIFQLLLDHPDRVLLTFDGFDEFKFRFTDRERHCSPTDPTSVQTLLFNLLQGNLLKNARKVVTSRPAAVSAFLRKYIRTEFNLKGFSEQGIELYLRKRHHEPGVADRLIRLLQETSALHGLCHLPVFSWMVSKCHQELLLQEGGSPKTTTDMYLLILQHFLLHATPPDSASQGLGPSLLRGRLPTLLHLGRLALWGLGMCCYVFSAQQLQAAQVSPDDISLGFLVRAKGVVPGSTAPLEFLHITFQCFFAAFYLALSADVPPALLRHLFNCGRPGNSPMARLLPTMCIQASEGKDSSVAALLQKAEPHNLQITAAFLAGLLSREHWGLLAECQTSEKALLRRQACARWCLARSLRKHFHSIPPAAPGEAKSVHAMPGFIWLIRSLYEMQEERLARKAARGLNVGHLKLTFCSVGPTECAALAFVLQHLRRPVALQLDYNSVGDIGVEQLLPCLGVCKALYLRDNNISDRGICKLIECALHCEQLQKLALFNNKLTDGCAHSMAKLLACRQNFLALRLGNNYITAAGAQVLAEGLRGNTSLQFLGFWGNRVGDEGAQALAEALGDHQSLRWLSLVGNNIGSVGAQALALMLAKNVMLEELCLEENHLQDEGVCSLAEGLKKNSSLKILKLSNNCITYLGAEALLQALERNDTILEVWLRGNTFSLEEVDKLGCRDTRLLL

CC(=O)N[C@H]1C(O)O[C@H](CO)[C@@H](O)[C@@H]1O[C@H](C)C(=O)N[C@@H](C)C(=O)N[C@H](CCC(=O)O)C(N)=O (mixture of isomers) [MDP, muramyl dipeptide]
NOD2 Activity: 40.70
